Experiments:
[1] = target: T1, Muscarinic acetylcholine receptor M1 (Rattus norvegicus) (UniProt P08482); assay: Activation of rat muscarinic M1 receptor expressed in CHO cells co-expressing Gq protein assessed as potentiation of acetylcholine-induced intracellular Ca2+ mobilization at 30 uM relative to acetylcholine; format: functional, cell-based
T1 sequence (whole entry): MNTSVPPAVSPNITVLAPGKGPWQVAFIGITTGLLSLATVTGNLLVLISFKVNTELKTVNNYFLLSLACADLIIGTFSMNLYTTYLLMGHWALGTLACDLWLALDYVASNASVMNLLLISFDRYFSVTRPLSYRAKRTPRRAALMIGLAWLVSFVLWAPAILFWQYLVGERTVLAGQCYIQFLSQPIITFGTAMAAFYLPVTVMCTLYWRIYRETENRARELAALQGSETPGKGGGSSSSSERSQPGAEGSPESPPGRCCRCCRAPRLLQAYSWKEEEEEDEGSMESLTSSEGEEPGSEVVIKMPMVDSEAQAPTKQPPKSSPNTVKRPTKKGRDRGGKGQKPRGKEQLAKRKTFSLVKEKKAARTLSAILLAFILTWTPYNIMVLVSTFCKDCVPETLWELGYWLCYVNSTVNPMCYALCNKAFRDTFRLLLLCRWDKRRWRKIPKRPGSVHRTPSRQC

[2] = target: T2, Muscarinic acetylcholine receptor M5 (Homo sapiens) (UniProt P08912); assay: Activation of human muscarinic M5 receptor expressed in CHO cells coexpressing Gq protein assessed as potentiation of acetylcholine-induced intracellular Ca2+ mobilization at 30 uM relative to acetylcholine; format: functional, cell-based
T2 sequence (whole entry): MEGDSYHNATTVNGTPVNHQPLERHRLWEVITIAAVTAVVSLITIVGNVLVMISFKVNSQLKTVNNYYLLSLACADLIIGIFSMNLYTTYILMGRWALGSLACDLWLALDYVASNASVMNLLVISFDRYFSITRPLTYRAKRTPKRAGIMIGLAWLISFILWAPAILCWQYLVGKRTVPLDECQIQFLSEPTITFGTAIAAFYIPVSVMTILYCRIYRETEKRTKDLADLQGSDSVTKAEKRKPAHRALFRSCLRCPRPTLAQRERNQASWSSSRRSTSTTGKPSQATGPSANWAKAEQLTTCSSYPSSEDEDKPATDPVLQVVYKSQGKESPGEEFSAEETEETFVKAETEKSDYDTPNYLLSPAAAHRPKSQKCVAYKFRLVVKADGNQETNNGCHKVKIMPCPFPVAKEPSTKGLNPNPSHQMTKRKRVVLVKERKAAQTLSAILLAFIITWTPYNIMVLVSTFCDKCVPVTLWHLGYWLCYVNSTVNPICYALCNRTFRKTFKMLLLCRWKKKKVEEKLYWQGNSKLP

Compound: Cc1ccccc1CN1C(=O)C(=O)c2cc(F)ccc21
- %max [1]: 37.7%
- %max [2]: 40.8%

Compound: Cc1ccccc1CN1C(=O)C(=O)c2cccc(F)c21
- %max [1]: 30.2%
- %max [2]: 27.5%

Compound: O=C1C(=O)N(Cc2ccccc2F)c2ccc(F)cc21
- %max [1]: 40.1%
- %max [2]: 46.2%

Compound: O=C1C(=O)N(Cc2ccc(Br)cc2F)c2ccc(F)cc21
- %max [1]: 70.5%
- %max [2]: 64%

Compound: Cc1ccccc1CN1C(=O)C(=O)c2cccc(Cl)c21
- %max [1]: 32.8%
- %max [2]: 32.6%

Compound: O=C1C(=O)N(Cc2c(F)cccc2F)c2ccccc21
- %max [1]: 36.6%
- %max [2]: 17.4%

Compound: COc1cccc(CN2C(=O)C(=O)c3cccc(F)c32)c1
- %max [1]: 51.1%
- %max [2]: 52%

Compound: O=C1C(=O)N(Cc2ccc(Br)cc2F)c2c(Cl)ccc(Cl)c21
- %max [1]: 9.93%
- %max [2]: 12.4%

Compound: O=C1C(=O)N(Cc2ccccc2F)c2c(Cl)ccc(Cl)c21
- %max [1]: 12.4%
- %max [2]: 14.7%

Compound: O=C1C(=O)N(Cc2c(F)cccc2F)c2c(Cl)ccc(Cl)c21
- %max [1]: 16.4%
- %max [2]: 12.2%

Compound: O=C1C(=O)N(Cc2ccccc2C(F)(F)F)c2ccccc21
- %max [1]: 37.9%
- %max [2]: 40.2%

Compound: COc1cccc(CN2C(=O)C(=O)c3cc(C)ccc32)c1
- %max [1]: 14.5%
- %max [2]: 29.6%

Compound: Cc1ccc2c(c1)C(=O)C(=O)N2Cc1ccc(OC(F)(F)F)cc1
- %max [1]: 13.8%
- %max [2]: 18.9%

Compound: Cc1ccc2c(c1)C(=O)C(=O)N2Cc1ccc(Br)cc1
- %max [1]: 19%
- %max [2]: 24.1%

Compound: O=C1C(=O)N(Cc2ccc(F)cc2F)c2ccc(Cl)cc21
- %max [1]: 32.4%
- %max [2]: 44.9%

Compound: COc1cccc(CN2C(=O)C(=O)c3cc(F)ccc32)c1
- %max [1]: 32.3%
- %max [2]: 41.6%

Compound: COc1ccc(CN2C(=O)C(=O)c3cc(F)ccc32)cc1
- %max [1]: 41.1%
- %max [2]: 38.3%

Compound: O=C1C(=O)N(Cc2ccccc2Cl)c2ccc(Cl)cc21
- %max [1]: 21.3%
- %max [2]: 44.4%

Compound: COc1cccc(CN2C(=O)C(=O)c3cccc(Cl)c32)c1
- %max [1]: 46.9%
- %max [2]: 38.7%

Compound: O=C1C(=O)N(Cc2c(F)cccc2F)c2ccc(F)cc21
- %max [1]: 27.6%
- %max [2]: 31.1%

Compound: O=C1C(=O)N(Cc2ccccc2Cl)c2c(F)cccc21
- %max [1]: 18.5%
- %max [2]: 20.3%

Compound: COc1ccc(CN2C(=O)C(=O)c3cccc(F)c32)cc1
- %max [1]: 54.6%
- %max [2]: 44.4%

Compound: COc1cccc(CN2C(=O)C(=O)c3ccccc32)c1
- %max [1]: 19.4%
- %max [2]: 28%

Compound: O=C1C(=O)N(Cc2ccc(F)cc2F)c2ccccc21
- %max [1]: 44.8%
- %max [2]: 40.4%

Compound: O=C1C(=O)N(Cc2c(F)cccc2F)c2c(F)cccc21
- %max [1]: 33.1%
- %max [2]: 25.1%

Compound: COc1cccc(CN2C(=O)C(=O)c3cc(Cl)ccc32)c1
- %max [1]: 16.9%
- %max [2]: 27.9%

Compound: O=C1C(=O)N(Cc2ccccc2Cl)c2ccc(F)cc21
- %max [1]: 41.4%
- %max [2]: 39.9%

Compound: O=C1C(=O)N(Cc2ccc(Br)cc2)c2c(Cl)ccc(Cl)c21
- %max [1]: 12.1%
- %max [2]: 20.7%

Compound: O=C1C(=O)N(Cc2c(F)cccc2F)c2ccc(OC(F)(F)F)cc21
- %max [1]: 13.6%
- %max [2]: 29.8%

Compound: O=C1C(=O)N(Cc2ccccc2C(F)(F)F)c2ccc(Cl)cc21
- %max [1]: 29.6%
- %max [2]: 48.4%

Compound: O=C1C(=O)N(Cc2ccccc2C(F)(F)F)c2c(Cl)ccc(Cl)c21
- %max [1]: 21.1%
- %max [2]: 16%

Compound: O=C1C(=O)N(Cc2ccc(OC(F)(F)F)cc2)c2c(F)cccc21
- %max [1]: 51.8%
- %max [2]: 57.7%

Compound: Cc1ccccc1CN1C(=O)C(=O)c2c(Cl)ccc(Cl)c21
- %max [1]: 13.7%
- %max [2]: 16.4%

Compound: O=C1C(=O)N(Cc2ccc(F)cc2F)c2ccc(OC(F)(F)F)cc21
- %max [1]: 25.9%
- %max [2]: 61.9%

Compound: Cc1ccc2c(c1)C(=O)C(=O)N2Cc1ccccc1C
- %max [1]: 20.2%
- %max [2]: 29.9%

Compound: O=C1C(=O)N(Cc2ccc(OC(F)(F)F)cc2)c2ccc(F)cc21
- %max [1]: 59.8%
- %max [2]: 58.4%

Compound: Cc1ccc2c(c1)C(=O)C(=O)N2Cc1ccc(Br)cc1F
- %max [1]: 22.3%
- %max [2]: 27.8%

Compound: O=C1C(=O)N(Cc2ccccc2F)c2c(F)cccc21
- %max [1]: 42.7%
- %max [2]: 42.4%

Compound: Cc1ccccc1CN1C(=O)C(=O)c2cc(Cl)ccc21
- %max [1]: 27.6%
- %max [2]: 47.3%

Compound: O=C1C(=O)N(Cc2c(F)cccc2F)c2c(Cl)cccc21
- %max [1]: 38.8%
- %max [2]: 23.6%

Compound: O=C1C(=O)N(Cc2ccc(Br)cc2)c2c(Cl)cccc21
- %max [1]: 29.9%
- %max [2]: 44.3%

Compound: O=C1C(=O)N(Cc2ccccc2F)c2ccc(Cl)cc21
- %max [1]: 23%
- %max [2]: 36.3%

Compound: O=C1C(=O)N(Cc2c(F)cccc2F)c2ccc(Cl)cc21
- %max [1]: 27.3%
- %max [2]: 31.8%

Compound: O=C1C(=O)N(Cc2ccc(OC(F)(F)F)cc2)c2ccc(Cl)cc21
- %max [1]: 31.3%
- %max [2]: 47.1%

Compound: O=C1C(=O)N(Cc2ccc(C(F)(F)F)cc2)c2ccc(Cl)cc21
- %max [1]: 44.1%
- %max [2]: 67.4%

Compound: O=C1C(=O)N(Cc2ccc(F)cc2F)c2c(F)cccc21
- %max [1]: 64.4%
- %max [2]: 68.9%

Compound: Cc1cccc2c1N(Cc1ccccc1F)C(=O)C2=O
- %max [1]: 24.9%
- %max [2]: 24.6%

Compound: Cc1cccc2c1N(Cc1ccc(F)cc1F)C(=O)C2=O
- %max [1]: 32.6%
- %max [2]: 33.8%

Compound: O=C1C(=O)N(Cc2ccccc2F)c2ccc(OC(F)(F)F)cc21
- %max [1]: 11.3%
- %max [2]: 51.8%

Compound: O=C1C(=O)N(Cc2ccccc2F)c2ccccc21
- %max [1]: 38.9%
- %max [2]: 24.5%

Compound: O=C1C(=O)N(Cc2ccc(F)cc2F)c2ccc(F)cc21
- %max [1]: 47.3%
- %max [2]: 60.3%

Compound: Cc1ccc2c(c1)C(=O)C(=O)N2Cc1ccccc1Cl
- %max [1]: 16.8%
- %max [2]: 24.3%

Compound: COc1ccc(CN2C(=O)C(=O)c3cc(C)ccc32)cc1
- %max [1]: 14.1%
- %max [2]: 21.2%

Compound: O=C1C(=O)N(Cc2ccccc2Cl)c2ccccc21
- %max [1]: 43.4%
- %max [2]: 42%

Compound: Cc1ccccc1CN1C(=O)C(=O)c2ccccc21
- %max [1]: 43.2%
- %max [2]: 36.3%

Compound: O=C1C(=O)N(Cc2ccc(OC(F)(F)F)cc2)c2c(Cl)ccc(Cl)c21
- %max [1]: 16%
- %max [2]: 23.2%

Compound: O=C1C(=O)N(Cc2ccccc2F)c2c(Cl)cccc21
- %max [1]: 50.4%
- %max [2]: 49.5%

Compound: O=C1C(=O)N(Cc2ccccc2C(F)(F)F)c2c(Cl)cccc21
- %max [1]: 31.1%
- %max [2]: 14%

Compound: O=C1C(=O)N(Cc2ccc(Br)cc2)c2ccc(OC(F)(F)F)cc21
- %max [1]: 13.2%
- %max [2]: 47.6%

Compound: O=C1C(=O)N(Cc2ccccc2Cl)c2c(Cl)ccc(Cl)c21
- %max [1]: 13.1%
- %max [2]: 18.9%

Compound: O=C1C(=O)N(Cc2ccccc2C(F)(F)F)c2ccc(OC(F)(F)F)cc21
- %max [1]: 22.6%
- %max [2]: 56.5%

Compound: O=C1C(=O)N(Cc2ccc(F)cc2F)c2c(Cl)ccc(Cl)c21
- %max [1]: 17.2%
- %max [2]: 19.1%

Compound: O=C1C(=O)N(Cc2ccc(OC(F)(F)F)cc2)c2c(Cl)cccc21
- %max [1]: 43.6%
- %max [2]: 72.3%

Compound: O=C1C(=O)N(Cc2ccc(Br)cc2F)c2ccccc21
- %max [1]: 49.2%
- %max [2]: 48.5%

Compound: O=C1C(=O)N(Cc2ccc(Br)cc2)c2ccc(Cl)cc21
- %max [1]: 26.1%
- %max [2]: 32%

Compound: COc1ccc(CN2C(=O)C(=O)c3cc(Cl)ccc32)cc1
- %max [1]: 20.3%
- %max [2]: 32.6%

Compound: O=C1C(=O)N(Cc2ccc(OC(F)(F)F)cc2)c2ccccc21
- %max [1]: 54.7%
- %max [2]: 60.5%

Compound: Cc1ccc2c(c1)C(=O)C(=O)N2Cc1ccccc1C(F)(F)F
- %max [1]: 17.8%
- %max [2]: 30.6%

Compound: O=C1C(=O)N(Cc2ccc(F)cc2F)c2c(Cl)cccc21
- %max [1]: 64.6%
- %max [2]: 61.6%
